One data set deals with T1, sucrase (Homo sapiens, UniProt P14410).
T1 construct: Cells were collected with a lysis buffer (0.1 M phosphate buffer (pH6.8), 0.5% TritonX-100); endogenous in cells; host or cells: Caco-2 cells (Triton X-100 lysate supernatant, crude enzyme)
The data set is described as follows: Suppression test for sucrase activity in Caco-2 cells. The data set is classed as cell-based. The method, then: (§1) The extract obtained can be examined for action to suppress α-glucosidase activity, for example, by the following method. The extract is added to human colon cancer-derived cells (hereinafter referred to as Caco-2 cells) and the cells are cultured. The cultured cells are collected. With a crude enzyme solution thereof, sucrose or maltose serving as substrate is allowed to react. The amount of glucose generated is quantified by an enzyme method using glucose oxidase. An action to inhibit glucose uptake can be examined by the following method. To Caco-2 cells differentiated into the intestinal epithelial-like, glucose and the extract were simultaneously added. The amount of glucose taken in the cells or permeated through the cells is quantified by an enzyme method using glucose oxidase.
(§2) The test herein was carried out with reference to the method of OGAWA et al. (N. Ogawa et al., the Journal of Nutrition, 130: 507-513, 2000).
To Dulbecco's modified eagle medium (DMEM)(manufactured by Thermo Fisher Scientific K.K.), 10% fetal bovine serum (hereinafter referred to as FBS)(manufactured by Thermo Fisher Scientific K.K.), a 1% antibacterial agent (Penicillin-Streptomycin-L-Glutamine) (manufactured by FUJIFILM Wako Pure Chemical Corporation) and a 1% non-essential amino acid mixture (MEM Non-Essential Amino Acids) (manufactured by Thermo Fisher Scientific K.K.) were added to prepare a culture solution (hereinafter referred to as DMEM culture medium). In the DMEM culture solution (medium), Caco-2 cells were suspended. The suspension was added in 24-well plates (manufactured by TPP) in a ratio of 1.0×10^4 cells/cm^2 to seed the cells. The cells were cultured under 95% air/5% carbon dioxide gas at 37° C. for 8 to 10 days until the cultured cells reached confluency while exchanging the medium at intervals of 2 to 3 days. After the culture supernatant was removed by suction, the amber extract (50% ethanol extract) obtained in Production Example 1 was dissolved in dimethyl sulfoxide (hereinafter referred to as DMSO) so as to obtain a final concentration of 100 and 200 μg/mL. The DMSO solutions were mixed with DMEM culture medium (DMSO final concentration: 0.25%) and each added in an amount of 500 μL. DMSO was added to DMEM culture medium so as to obtain a DMSO final concentration of 0.25% and treated. This was used as a control. […] This was used as a positive control. In addition, the suppression test for sucrase/maltase activity was carried out by using succinic acid in the corresponding amount to that contained in amber extract. More specifically, the content of succinic acid in the amber extract obtained in Production Example 1 was calculated by analysis/preparative high performance liquid chromatographic apparatus and a Fourier transform infrared spectrophotometer. […]
(§3) Cells were collected with a lysis buffer (0.1 M phosphate buffer (pH6.8), 0.5% TritonX-100), allowed to stand still on ice for 20 minutes and centrifuged (10,000×g) at 4° C. for 30 minutes, and then, the supernatant was collected. […] Thereafter, the amount of the glucose generated was quantified in accordance with an enzyme method using glucose CII test Wako (manufactured by FUJIFILM Wako Pure Chemical Corporation). The sucrase activity and maltase activity were calculated, respectively, based on the production amount of glucose.

A further data set deals with Caco-2 cells. As to the kind of experiment: Suppression test for glucose uptake by the intestinal epithelial-like cells (Caco-2 cells), Transwell glucose permeation. The data set is classed as cell-based, human. The note with it: for Glucose permeability (%) (n = 3): apical side, 2 hours, control = 100. The protocol:
as §1
The test herein was carried out in accordance with the method of Konishi et al. (Konishi et al., Biosci. Biotechnol. Biochem., 67(4), 856-862, 2003). In DMEM culture medium, Caco-2 cells were suspended. The suspension was added in Transwell-COL of 12 mm diameter and 0.4 μm in pore size (manufactured by Corning Incorporated) (hereinafter referred to as Transwell) in a ratio of 1.0×10^5 cells/cm^2 to seed the cells. The cells were cultured under 95% air-5% carbon dioxide gas at 37° C. for 3 weeks while exchanging the medium at intervals of 2 to 3 days.
After an intercellular electrical resistance (TER value) was confirmed to be 350 Ω·cm^2 or more by Millicell ERS-2 resistance measurement system (manufactured by Merck Millipore), the amber extract obtained in Production Example 1 was dissolved in DMSO on the apical side so as to obtain a final concentration of 0.2, 1 and 2 mg/mL, and mixed with a solution obtained by dissolving D(+)-glucose in PBS (+) in a concentration of 0.5% (hereinafter referred to as the 0.5% glucose solution) (DMSO final concentration: 1%). The resultant mixed solutions each were added in an amount of 500 μL. DMSO was added to a 0.5% glucose solution so as to obtain a DMSO final concentration of 1% and treated. This was used as a control. Phlorizin n-hydrate derived from an apple (hereinafter referred to as phlorizin) was dissolved in DMSO so as to obtain a final concentration of 1 mg/mL and mixed with the 0.5% glucose solution. The resultant DMSO solution (DMSO final concentration: 1%) was treated and used as a positive control. Further, succinic acid was subjected to a glucose permeation suppression test in the amount corresponding to that contained in the amber extract. More specifically, the content of succinic acid in the amber extract obtained in Production Example 1 was calculated by use of analysis/preparative high performance liquid chromatographic apparatus and Fourier transform infrared spectrophotometer. As a result, the content rate of succinic acid was confirmed to be 2% or less. Then, succinic acid was dissolved in DMSO so as to obtain a final concentration of 0.02, 0.05 and 0.1 mg/mL and mixed with PBS (+)(DMSO final concentration: 1%) and treated. At each basolateral side, 500 μL of PBS (+) was added. These transwells were subjected to culture carried out under 95% air −5% carbon dioxide gas at 37° C. for 2 hours. Thereafter the amount of glucose permeated on the basolateral side was quantified by use of glucose CII test Wako. The glucose permeability of the control sample was regarded as 100 and the relative changes for the samples containing a test substance were calculated. After the test, the TER value was confirmed to be 350 Ω·cm^2 or more.
Background: Caco-2 monolayers are a common model of the intestinal barrier.

Another data set deals with maltase. As to the kind of experiment: Suppression test for maltase activity in Caco-2 cells. In kind it is cell-based, human. The note with it: for Maltase activity (%) (n = 3): Caco-2 cells treated 7 days, control = 100. The protocol:
as §1, §2
To Dulbecco's modified eagle medium (DMEM)(manufactured by Thermo Fisher Scientific K.K.), 10% fetal bovine serum (hereinafter referred to as FBS)(manufactured by Thermo Fisher Scientific K.K.), a 1% antibacterial agent (Penicillin-Streptomycin-L-Glutamine) (manufactured by FUJIFILM Wako Pure Chemical Corporation) and a 1% non-essential amino acid mixture (MEM Non-Essential Amino Acids) (manufactured by Thermo Fisher Scientific K.K.) were added to prepare a culture solution (hereinafter referred to as DMEM culture medium). In the DMEM culture solution (medium), Caco-2 cells were suspended. The suspension was added in 24-well plates (manufactured by TPP) in a ratio of 1.0×10^4 cells/cm^2 to seed the cells. The cells were cultured under 95% air/5% carbon dioxide gas at 37° C. for 8 to 10 days until the cultured cells reached confluency while exchanging the medium at intervals of 2 to 3 days. […] More specifically, the content of succinic acid in the amber extract obtained in Production Example 1 was calculated by analysis/preparative high performance liquid chromatographic apparatus and a Fourier transform infrared spectrophotometer. […]
as §3

[1] abbreviates: Caco-2 cells, succinic acid in the amount corresponding to that contained in the amber extract.

Each structure is given as a SMILES string.

T1 sequence (P14410 whole entry): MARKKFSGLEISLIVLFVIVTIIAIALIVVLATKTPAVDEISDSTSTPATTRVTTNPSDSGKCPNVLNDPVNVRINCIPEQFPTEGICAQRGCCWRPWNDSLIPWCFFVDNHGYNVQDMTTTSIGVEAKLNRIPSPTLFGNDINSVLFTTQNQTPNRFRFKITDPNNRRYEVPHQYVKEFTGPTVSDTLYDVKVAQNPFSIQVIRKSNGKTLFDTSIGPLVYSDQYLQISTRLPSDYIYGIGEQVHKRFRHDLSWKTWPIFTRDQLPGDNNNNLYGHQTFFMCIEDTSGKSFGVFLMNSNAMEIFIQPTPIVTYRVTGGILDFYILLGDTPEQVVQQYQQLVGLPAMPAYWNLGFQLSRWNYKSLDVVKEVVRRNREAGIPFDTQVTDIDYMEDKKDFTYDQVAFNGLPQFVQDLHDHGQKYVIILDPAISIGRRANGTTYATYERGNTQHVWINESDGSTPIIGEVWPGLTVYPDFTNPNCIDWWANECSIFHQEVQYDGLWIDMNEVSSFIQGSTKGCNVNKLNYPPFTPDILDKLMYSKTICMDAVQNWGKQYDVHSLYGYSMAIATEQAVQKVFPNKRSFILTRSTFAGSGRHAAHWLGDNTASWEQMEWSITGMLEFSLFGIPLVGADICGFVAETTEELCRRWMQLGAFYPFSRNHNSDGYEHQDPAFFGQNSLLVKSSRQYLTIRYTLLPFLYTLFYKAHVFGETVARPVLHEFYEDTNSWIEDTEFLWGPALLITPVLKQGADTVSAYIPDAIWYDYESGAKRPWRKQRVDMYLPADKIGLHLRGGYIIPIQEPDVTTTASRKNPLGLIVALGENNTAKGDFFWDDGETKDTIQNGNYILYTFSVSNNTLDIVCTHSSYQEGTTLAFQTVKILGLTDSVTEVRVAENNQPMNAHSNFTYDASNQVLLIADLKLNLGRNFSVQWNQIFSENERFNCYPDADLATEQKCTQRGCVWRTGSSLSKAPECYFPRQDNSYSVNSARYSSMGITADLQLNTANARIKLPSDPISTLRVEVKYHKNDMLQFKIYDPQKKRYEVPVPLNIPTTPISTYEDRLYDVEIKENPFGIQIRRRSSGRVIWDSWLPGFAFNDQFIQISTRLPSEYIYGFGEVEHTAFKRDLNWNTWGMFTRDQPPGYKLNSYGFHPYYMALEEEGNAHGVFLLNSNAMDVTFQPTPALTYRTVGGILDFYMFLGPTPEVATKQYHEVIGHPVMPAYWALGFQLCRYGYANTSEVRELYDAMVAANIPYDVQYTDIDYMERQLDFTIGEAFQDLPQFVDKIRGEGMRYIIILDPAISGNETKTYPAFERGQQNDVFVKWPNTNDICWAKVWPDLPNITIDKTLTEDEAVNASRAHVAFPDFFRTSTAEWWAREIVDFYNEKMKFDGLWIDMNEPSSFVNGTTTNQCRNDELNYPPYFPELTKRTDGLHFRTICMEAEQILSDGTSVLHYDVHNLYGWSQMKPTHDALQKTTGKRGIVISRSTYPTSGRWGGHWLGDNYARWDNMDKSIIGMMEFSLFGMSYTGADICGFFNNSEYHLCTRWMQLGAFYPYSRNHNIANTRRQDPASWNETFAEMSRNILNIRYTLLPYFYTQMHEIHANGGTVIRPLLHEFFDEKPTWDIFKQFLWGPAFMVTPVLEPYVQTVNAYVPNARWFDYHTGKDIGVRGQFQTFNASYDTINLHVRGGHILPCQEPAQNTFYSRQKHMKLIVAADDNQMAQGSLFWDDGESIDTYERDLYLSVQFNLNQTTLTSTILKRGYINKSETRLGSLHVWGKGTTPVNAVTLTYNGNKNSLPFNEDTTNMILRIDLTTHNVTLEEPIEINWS

`C[C@H]1O[C@H](O[C@H]2[C@H](O)[C@@H](O)[C@@H](O[C@H]3[C@H](O)[C@@H](O)C(O)O[C@@H]3CO)O[C@@H]2CO)[C@H](O)[C@@H](O)[C@@H]1N[C@H]1C=C(CO)[C@@H](O)[C@H](O)[C@H]1O` (some centres unmarked) [ACA, Acarbose]: the activity at 100 µg/mL at sucrase (100 μg/mL, Caco-2 cells treated 7 days, control = 100, read-out: Sucrase activity (%) (n = 3)) was 90.2 ± 4.1%.

`O=C(CCc1ccc(O)cc1)c1c(O)cc(O)cc1O[C@@H]1O[C@H](CO)[C@@H](O)[C@H](O)[C@H]1O` [Phlorizin, Phlorizin n-hydrate]: the “Glucose permeability (%) (n = 3)” value with Caco-2 cells (1 mg/mL, 0.5% glucose) was 27.4 ± 1.8 %.

Consider `O=C(O)CCC(=O)O` [Succinic acid, succinic acid], for which the activity at 2 µg/mL on sucrase (2 μg/mL, Caco-2 cells treated 7 days, control = 100, read-out: Sucrase activity (%) (n = 3)) came to 102 ± 3%. For the same molecule, at sucrase (5 μg/mL, Caco-2 cells treated 7 days, control = 100, read-out: Sucrase activity (%) (n = 3)), the activity at 5 µg/mL came to 95.4 ± 1.4%. Also, the activity at 25 µg/mL at sucrase (25 μg/mL, Caco-2 cells treated 7 days, control = 100, read-out: Sucrase activity (%) (n = 3)) came to 99.2 ± 2%. The “Action to suppress sucrase activity in Caco-2 cells (in words)” value at sucrase (setting [1]) is on record as “not confirmed”. Also, the “Glucose permeability (%) (n = 3)” value in the data set with Caco-2 cells (0.02 mg/mL) came to 94.6 ± 1.6%; with Caco-2 cells (0.05 mg/mL), 92.8 ± 3.2%; with Caco-2 cells (0.1 mg/mL), 95.4 ± 2.5%. In addition, the “Suppression of glucose uptake / permeation in Caco-2 cells (in words)” value in the data set on Caco-2 cells (setting [1]) is recorded as “not confirmed”. In addition, the results for the “Maltase activity (%) (n = 3)” value in the data set with maltase (2 μg/mL), in the data set with maltase (5 μg/mL) and in the data set on maltase (25 μg/mL) were 108.3 ± 1.5%, 99.2 ± 1.3% and 100.9 ± 2.1%, respectively. Further, in the data set on maltase (setting [1]), the “Action to suppress maltase activity in Caco-2 cells (in words)” value was “not confirmed”.

These data come from patent US11007237B2, “Agent for suppressing carbohydrate breakdown and absorption” (KOHAKU BIO TECHNOLOGY CO., LTD., priority 2017, dated 2021).
